{"source": "patent US20250170239A1", "about": "“CELLULAR REPROGRAMMING BY TARGETING THE GOLGI APPARATUS” (MUSC Foundation for Research Development, priority 2023, published 2025)", "key": {"Pmel CD8+ T cells": {"tested_on": "Pmel CD8+ T cells", "settings": "for Golgi stress (GM130 expression): TME exhaustion model", "excerpt": "The solid tumor microenvironment is characterized as being highly immunosuppressive, leading to T cell exhaustion. Thus, an in vitro model of TME-induced T cell exhaustion using supernatants collected from B16-F10 murine melanoma cells along with chronic antigen stimulation was used.25 Pmel CD8+ T cells were activated and cultured under optimal culture conditions, with tumor supernatant plus repeated stimulation with gp100, or with tumor supernatant plus repeated stimulation with gp100 plus H2S donor (FIG. 12I). This model was used to determine the impact of T cell exhaustion on Cbs expression and H2S production by gating Pmel T cells on TIM3+PD1+ (terminally exhausted) and TIM3−PD1− cells.\nOnce the tumors reached a size of approximately 150 mm2, the mice were euthanized and the tumors were removed. The tumors were then processed into single cell suspension using a mouse tumor dissociation kit (Miltenyi, #130-096-730). […] After 5 days of culture without changing the media, the supernatant was removed from the wells and spun down to remove any tumor cells. 3-day activated Pmel T cells were then resuspended in the tumor supernatant along with 0.1 ug/mL of gp100 antigen. To promote chronic antigen stimulation, 0.1 μg/mL gp100 was added every day for 4 days. After 4 days of culture with tumor supernatant and chronic stimulation, the T cells were removed and analyzed for expression of exhaustion markers and functional assays."}, "Pmel T cells [1]": {"tested_on": "Pmel T cells", "procedure": "On day 3, the cells were collected for RNA-sequencing analysis (n=3 independent samples). (FIG. 14A) Principle component analysis (PCA) of control versus H2S-treated samples. […] (FIG. 14E) Schematic of experimental design for cytokine and translation assays. (FIG. 14F) Pmel CD8+ T cells were activated for 3 days with gp100 and IL2+/−0.5 mM GYY4137. On day 3, the cells were washed and re-stimulated with gp100 for 4 hours, followed by measurement of cytokine production via FACS. (FIG. 14G) Active protein translation was assessed using Click-iT Plus OPP Alexa Fluor 647 Protein Synthesis Assay Kit (ThermoFisher) (n=3 independent samples) in Pmel T cells after re-stimulation (n=3 independent samples). (FIG. 14H) Levels of EIF2a, phosphorylated 4EBP1, and phosphorylated rS6 evaluated via FACS in Pmel T cells after re-stimulation (n=4 independent samples). (FIG. 14I) Pmel CD8+ T cells were activated for 2 days with gp100 and IL2 followed by transduction with either control lentivirus or CBS-expressing lentivirus. On day 5, the cells were washed and re-stimulated with gp100 for 4 hours. Quantification of protein translation assessed using Click-iT Plus OPP Alexa Fluor 647 Protein Synthesis Assay Kit and quantification intracellular cytokines assessed using FACS (n=3 independent samples). MFI represents mean fluorescence intensity.\nPmel T cells were re-stimulated with gp100 peptide (0.1 μg/mL) and Click-iT™ Plus OPP Alexa Fluor™ 647 Protein Synthesis Assay Kit (ThermoFisher Scientific #C10458) was used to measure protein translation using flow cytometry following the manufacturer's protocol."}, "Pmel T cells [2]": {"tested_on": "Pmel T cells", "experiment": "Golgi stress (monensin, H2O2, thapsigargin) in Pmel T cells: GM130, ROS, Golgi dispersion", "assay_type": "cell-based, mouse", "parameters": "cell death / mitochondrial ROS / monensin-induced cell death and mitochondrial ROS accumulation / ER stress (p-PERK): dose or concentration left out as unconfirmed", "procedure": "(FIG. 21A) Levels of intracellular glutathione assessed using FACS by employing ThiolTracker Violet dye in control CD19 CAR-T cells or CAR-T cells overexpressing Cbs (CbstdCD19-CAR-T) (n=3). (FIG. 21B) 12 hour Thapsigargin (700 nM) treatment was used to induce ER stress in WT T cells, Cbs-KO T cells, and Cbs-KO T cells+H2S. Levels of phosphorylated PERK were assessed by FACS (n=3). (FIG. 21C) Pmel T cells were treated with either Thapsigargin (700 nM) or Monensin (1 mM) for 12 hours, followed by staining for phosphorylated PERK (p-PERK) and GM130 to assess ER stress and Golgi stress, respectively (n=4). (FIG. 21D) Activated Pmel T cells were treated for 12 hours with either vehicle control or 1 mM Monensin (“+Golgi stress”) before being stained for giantin to assess Golgi dispersion. […] (FIG. 21E) Representative confocal microscopy images of mitochondria (Tom20) and Golgi (giantin) in human PBMCs treated with vehicle control or 0.5 mM GYY4137.\nT cells were stained with conjugated for surface markers as described in the figure legends followed by fixation and permeabilization with BD Cytofix/Cytoperm Kit (BD Biosciences, 554722). The Golgi was labeled using anti-Giantin antibody (Abcam, ab80864) as the primary antibody followed by secondary antibody staining with anti-Rabbit IgG conjugated to Alexa Fluor 488 (ab150077). The cells were then imaged using ImageStreamX mark II imaging flow-cytometer and analyzed using IDEAS 6.2. Spectral overlap was compensated for using single-stain controls. Image analysis for Golgi area was performed using the protocol established by Eisenberg-Lerner et al.44 First, cells were gated on single cells using the area and aspect ratio features, and then gated on focused cells using the Gradient RMS feature. Golgi area was calculated using the anti-Giantin fluorescence signaling, using on the Threshold_50 mask that includes the 50% highest intensity pixels of the Golgi staining, with a mask defined as Area Threshold 50 was considered as the Golgi area to compare between the relevant conditions."}, "[3]": {"settings": "in culture; cited from earlier work"}, "[4]": {"settings": "tumor supernatant + repeated gp100 +/− 0.5 mM GYY4137"}}, "note": "Read-outs that look alike come from different tables or passages of the source.", "data": [{"smiles": "C1COCCN1.COc1ccc(P(=S)(S)N2CCOCC2)cc1", "note": "(stereo not drawn) [GYY4137]", "values": [{"measurement": "Golgi stress (GM130 expression)", "setting": "Pmel CD8+ T cells", "result": "reverted"}, {"measurement": "Golgi stress (GM130 expression)", "setting": "Pmel CD8+ T cells; listed as H2S donor", "result": "decrease in GM130 expression was mitigated"}, {"measurement": "ER stress (high phosphorylated-PERK)", "setting": "Pmel CD8+ T cells; in vitro TME exhaustion model", "result": "mitigated"}, {"measurement": "Tcm phenotype", "setting": "Pmel CD8+ T cells; [4]", "result": "preserve the Tcm phenotype"}, {"measurement": "expression of exhaustion markers PD1, TIM3, Lag3, CD38", "setting": "Pmel CD8+ T cells; [4]", "result": "decreased expression of T cell exhaustion markers PD1, TIM3, Lag3, and CD38"}, {"measurement": "phosphorylation of 4EBP1", "setting": "Pmel T cells [1]; FACS after re-stimulation", "result": "increased phosphorylation of 4EBP1"}, {"measurement": "total EIF2α and phosphorylated S6 ribosomal protein", "setting": "Pmel T cells [1]; FACS after re-stimulation", "result": "increased total levels of EIF2α and phosphorylated levels of S6 ribosomal protein"}, {"measurement": "overall protein translation (OPP incorporation)", "setting": "Pmel T cells [1]; upon re-stimulation with cognate antigen", "result": "significantly enhanced upregulation of overall protein translation"}, {"measurement": "monensin-induced ROS (DCFDA)", "setting": "Pmel T cells [2]; 1 mM monensin with H2S treatment", "result": "mitigated"}, {"measurement": "H2O2-mediated changes in Golgi stress (GM130 levels)", "setting": "Pmel T cells [2]; 50 mM H2O2 (6-hours)", "result": "mitigated"}, {"measurement": "monensin-induced cell death and mitochondrial ROS accumulation", "setting": "Pmel T cells [2]; monensin in presence of H2S", "result": "partially mitigated"}, {"measurement": "duration of sustained H2S release", "setting": "[3]", "result": "up to 7 days"}]}]}
